Results as given in paper PMC9032346, “Identification of functionally important domains of human cytomegalovirus gO that act after trimer binding to receptors” (PLoS Pathogens, 2022).

Experiments:
[1] = test system: Abs present in HCMV seropositive human serum; assay: ELISA of biotinylated gO peptides with pooled human transplant sera; type: binding; settings: biotin peptides 0.5 mM on streptavidin plates, pool of 5 sera diluted to NT100
Protocol: Fig 5 gO peptides recognized by Abs present in HCMV seropositive human serum. The panel of gO peptides with C-terminal biotin tags were incubated in the wells of streptavidin-coated ELISA plates. The wells were washed and then incubated with a pool of 5 different human sera from transplant patients that had been diluted to the NT100 titers. The plates were washed and incubated with goat-anti human-IgG-HRP for 1 h at room temperature, washed, and incubated with Turbo-TMB substrate. Control conditions included no peptide plus human sera (red bar) and wells coated with soluble trimer (instead of peptides) and human sera (green bar). The absorbance values are indicated on the y-axis and the numbers of the individual gO peptides are indicated on the x-axis.
For cell-based ELISA assays, ARPE-19 epithelial or fibroblast cells in 96-well plates were fixed with 4% paraformaldehyde, washed with PBS supplemented with 0.1M glycine pH.7.2, then washed with PBS plus 2% BSA and incubated with soluble trimers or gH/gL complexes at 10 μg/ml (or 20 μg/ml in the case of gO-417) in PBS with 2% BSA at room temperature for 1 h. […] The colorometric reaction was stopped by adding 100 μl of 1M sulfuric acid to the wells and then the substrate development was read in a Molecular Dynamics precision plate reader at a wavelength of 450 nm.

[2] = test system: neutralizing Abs from human serum; assay: Depletion of neutralizing Abs from human sera, read out by HCMV neutralization on ARPE-19; type: cell-based
Protocol: Fig 7 gO peptides 20 and 26 deplete neutralizing Abs from human serum. (A) Pooled HCMV seropositive serum was diluted to (NT100) titers then incubated with either no protein, 1μg of soluble trimer, or gO peptides (with biotin): 20, 26, 32 or 33 (each at 0.5 mM) for 1 h at 37°C. […] The trimer was removed using nickel-agarose and peptides removed using streptavidin-agarose. The remaining Abs were tested in neutralization assays involving HCMV (BADrUL131) and ARPE-19 epithelial cells. The relative infectivity of HCMV after incubation with these sera was determined by counting GFP+ (infected) cells after 24 h of infection and compared to the numbers of infected cells following incubation of HCMV with similarly diluted sera from HCMV seronegative donors (sero-neg) Data was collected from three separate wells for each condition. (B and C) Two panels of 8 a.a. peptides with 7 a.a. overlap were derived from peptide 20 (B) or peptide 26 (C). These peptides were tested in depletion assays as in panel A. The relative infectivity of HCMV (BADrUL131) on ARPE-19 epithelial cells was determined and normalized to the level of HCMV infectivity with depletions performed with soluble trimer. Data was collected from a randomly selected field of the same surface area from each well.
These sera were then tested in HCMV neutralization assays as described above.

rabbits = assay: Immunization of rabbits with ova-conjugated peptides; type: in vivo, New Zealand White rabbit; settings: peptides conjugated onto ovalbumin, sera after 3 rounds of immunization
Description: An overlapping peptide library spanning the entire length HCMV gO polypeptide from strain TR was obtained from Genscript Biotech, Piscataway, NJ. The peptides consisted of 20 amino acids in length with 7 amino acid overlap and a biotin moiety conjugated to the C-terminus. A panel of 8 a.a. peptides overlapping by 7 a.a. and a biotin moiety conjugated to the C-terminus that were derived from the protein sequences: 248-[…]-267 or 326-[…]-345 (S2 Table) were also obtained from Genscript Biotech. Peptides derived from the gO polypeptide sequence 235-[…]-267 (peptide 19/20 from overlapping library) and 326-[…]-345 (peptide 26 from overlapping library) were synthesized conjugated onto ovalbumin (ova). These ova-peptides were used to produce New Zealand White rabbit polyclonal sera by priming rabbits with ova-peptides in Freund’s adjuvant then boosting the rabbits with ova-peptides in TiterMax Gold adjuvant (Sigma, St. Louis, MO). Rabbit antibodies specific for peptide 20, 26 and ovalbumin were purified using peptides ova-20 and ova-26 or ova (without peptides) by coupling these proteins to AminoLink (Thermo Scientific).

Sequence | binding of IgG from human transplant sera [1] | depletion of NAbs from human sera ([2]; pooled sera at NT100, 0.5 mM biotin peptide) | HCMV infectivity with sera after depletion ([2]; pooled human transplant sera at NT100, 1 μg soluble trimer or 0.5 mM biotin peptide, 1 h 37°C, relative to seronegative sera, three wells) [%] | induction of gO-specific NAbs in rabbits (rabbits)
TTTPYSPYTTSTALNVTTNA [Peptide 22, gO (TR) a.a; 274-293, C-terminal biotin; negative control in depletion] | did not bind substantial IgG | retained complete neutralizing capacity | – | –
LRDLATWVYTTLRYRQNPFC [Peptide 26, gO (TR) a.a; 326-345, C-terminal biotin; also ova-conjugated for immunization] | binding higher quantities of IgG compared with other peptides | – | 45 | able to induce gO-specific NAbs
FRVPKYINGTKLKNTMRKLKRKQAPVKEQSEKK [Peptide 19/20, peptide containing all of peptides 19 and 20 (a.a. 235-267), conjugated onto ovalbumin] | – | – | – | able to induce gO-specific NAbs
